# Assay results taken from patent US10947188B2, “Small molecule ferroptosis inducers” (THE TRUSTEES OF COLUMBIA UNIVERSITY IN THE CITY OF NEW YORK, priority 2016, dated 2021).
# What was measured:
# [1] = test system: BJeLR, DRD, BJeHLT, and BJeH; assay: Viability of four engineered BJ cell lines (HRAS G12V selectivity); type: cell-based, human; details: 48 h
# BJeLR = assay: Modulatory profiling: Alamar Blue viability, lethal compound cotreated with death modulator (EC50, AUC); type: cell-based, human; parameters: AUC, modulator BJ.Gd3+ / AUC, modulator BJ.LNAME / AUC, modulator BJ.Lmin / AUC, modulator BJ.3MA / AUC, modulator BJ.ALLN / AUC, modulator BJ.Boc D / AUC, modulator BJ.CHX / AUC, modulator BJ.Co2+ / AUC, modulator BJ.Nec-1 / AUC, modulator BJ.Pepstatin / AUC, modulator BJ.TLCK / AUC, modulator BJ.atoc / AUC, modulator BJ.trolox / AUC, modulator BJ.zVAD: unit not given beside the values; details: for AUC, modulator BJ.3MA / AUC, modulator BJ.ALLN / AUC, modulator BJ.Boc D / AUC, modulator BJ.CHX / AUC, modulator BJ.Co2+ / AUC, modulator BJ.DPQ / AUC, modulator BJ.Gd3+ / AUC, modulator BJ.LNAME / AUC, modulator BJ.Lmin/NAD+ / AUC, modulator BJ.Lmin / AUC, modulator BJ.NAD+ / AUC, modulator BJ.NMMA / AUC, modulator BJ.Nec-1 / AUC, modulator BJ.Pepstatin / AUC, modulator BJ.TLCK: BJeLR cells, modulatory profile value (AUC); for AUC, modulator BJ.3MA: lethal compound cotreated with modulator 3MA; for AUC, modulator BJ.ALLN: lethal compound cotreated with modulator ALLN; for AUC, modulator BJ.Boc D: lethal compound cotreated with modulator Boc D; for AUC, modulator BJ.CHX: lethal compound cotreated with modulator CHX; for AUC, modulator BJ.Co2+: lethal compound cotreated with modulator Co2+; for AUC, modulator BJ.DPQ: lethal compound cotreated with modulator DPQ; for AUC, modulator BJ.Gd3+: lethal compound cotreated with modulator Gd3+; for AUC, modulator BJ.LNAME: lethal compound cotreated with modulator LNAME; for AUC, modulator BJ.Lmin/NAD+: lethal compound cotreated with modulator Lmin/NAD+; for AUC, modulator BJ.Lmin: lethal compound cotreated with modulator Lmin; for AUC, modulator BJ.NAD+: lethal compound cotreated with modulator NAD+; for AUC, modulator BJ.NMMA: lethal compound cotreated with modulator NMMA; for AUC, modulator BJ.Nec-1: lethal compound cotreated with modulator Nec-1; for AUC, modulator BJ.Pepstatin: lethal compound cotreated with modulator Pepstatin; for AUC, modulator BJ.TLCK: lethal compound cotreated with modulator TLCK; for EC50: Homo sapiens, BJeLR, 48 h
# HT-1080 or BJeLR cells = assay: Analysis of ROS generation (H2-DCFDA flow cytometry); type: cell-based
# Procedure: Grew 200,000 HT-1080 or BJeLR cells in six-well plates at 37° C. for 16 h. Cells were treated with test compounds, trypsinized, pelleted, and washed once with PBS. For lipophilic or aqueous ROS detection, cells were re-suspended in Hanks' Balanced Salt Solution (HBSS; Life Technologies) containing test compounds as well as C11-BODIPY(581/591) (2 μM) or H2-DCFDA (25 μM), respectively (Life Technologies), and incubated for 10 min at 37° C. Cells were then pelleted, re-suspended in 500 μL HBSS, strained through a 40-μm cell strainer (BD Falcon), and analyzed using a BD Accuri C6 flow cytometer (BD Biosciences). Both dyes were measured in the FL1 channel. Experiments were done in biological triplicates.
# HT-1080 cells = assay: Cell viability assay (Alamar Blue), lethal compounds with or without modulators; type: cell-based; details: HT-1080 cells; cotreatment
# Procedure: 1,000 cells per 36 μl were seeded in each well in 384-well plates. Lethal compounds were dissolved, and a twofold, 12-point dilution series was prepared in DMSO. Compound solutions were further diluted with media at 1:25, and 4 μl per well of the diluted solutions was added to cell cultures immediately after cells were seeded. […] When other cell-death-modulating compounds (100 nM sodium selenite, 1 μM cerivastatin, 100 μg/mL mevalonic acid) were used in cotreatments, they were supplemented to cell culture for 24 h before lethal compounds were added to cell culture, after which cells were further incubated for 24 h at 37° C. under 5% CO2. On the day of the viability measurement, we added 10 μl per well of 50% Alamar Blue diluted in media (Life Technologies) and further incubated the cells at 37° C. for 6 h. Fluorescence intensity (excitation/emission: 530/590) was measured with a Victor 3 plate reader (PerkinElmer), and the normalized viability was calculated as VL=(IL−I0)/(IV−I0), where VL, I0, IV, and IL are the normalized viability and the raw fluorescence intensities from the wells containing media, cells treated with a vehicle (negative control), and cells with the lethal compound (L), respectively. When the effect of a chemical modulator (M) on L was calculated, we instead used the equation VL|M=(IM,L−I0)/(IM,V−I0), where VL|M, IM,L and IM,V are the normalized viability, and fluorescence intensity from cells treated with […], respectively. The viability was typically measured in biological triplicate unless otherwise specified. A representative dose-response curve, the mean and standard error of normalized viability from one replicate were plotted. […]
# HT-1080 = assay: Modulatory profiling: Alamar Blue viability, lethal compound cotreated with death modulator (EC50, AUC); type: cell-based; parameters: AUC, modulator HT.3MA / AUC, modulator HT.ALLN / AUC HT.ATA / AUC HT.ActD / AUC HT.BHA / AUC HT.BHT / AUC HT.BocD / AUC HT.CHX / AUC HT.Co2+ / AUC HT.DPQ / AUC HT.EGTA / AUC HT.Lmim / AUC HT.NAD+ / AUC HT.Nec-1 / AUC HT.SP600125 / AUC HT.TLCK / AUC HT.U0126: unit not given beside the values; details: for AUC HT.ATA: HT-1080, modulator ATA; for AUC HT.ActD: HT-1080, modulator ActD; for AUC HT.BHA: HT-1080, modulator BHA; for AUC HT.BHT: HT-1080, modulator BHT; for AUC HT.BocD: HT-1080, modulator BocD; for AUC HT.CHX: HT-1080, modulator CHX; for AUC HT.Co2+: HT-1080, modulator Co2+; for AUC HT.CspA: HT-1080, modulator CspA; for AUC HT.DPQ: HT-1080, modulator DPQ; for AUC HT.EGTA: HT-1080, modulator EGTA; for AUC HT.Gd3+: HT-1080, modulator Gd3+; for AUC HT.LNAME: HT-1080, modulator LNAME; for AUC HT.Lmim: HT-1080, modulator Lmim; for AUC HT.NAD+: HT-1080, modulator NAD+; for AUC HT.NMMA: HT-1080, modulator NMMA; for HT.atoc (AUC) / HT.bCarotene (AUC) / HT.deferox (AUC) / HT.digoxin (AUC) / HT.trolox (AUC) / HT.zVAD (AUC) / EC50: HT-1080; for HT.atoc (AUC): modulator atoc; for HT.bCarotene (AUC): modulator bCarotene; for HT.deferox (AUC): modulator deferox; for HT.digoxin (AUC): modulator digoxin; for HT.trolox (AUC): modulator trolox; for HT.zVAD (AUC): modulator zVAD; for EC50: Homo sapiens, HT-1080, 48 h, 48 h
# [2] = Cobalt (II) binding assay in vitro (absorbance spectrum); details: absorbance 300-700 nm
# Procedure: For each cluster I compound (CIL13, −52, and −64), prepared two-fold dilution series with DMSO. We added 30 μL per well of either water or 10 μM cobalt (II) chloride solution to each well of a 384-well plate. Dilution series of each compound in DMSO were added by 10 μL per well. After solutions had been mixed by shaking of the plate using a Victor 3 plate reader (PerkinElmer), absorbance was scanned between 300 and 700 nm for each compound. Finally the following Absorbance value for each compound was plotted (see FIG. 9B):
# [formula] where Abs is the absorbance at each wavelength. Search of Commercially Available Structural Analogs of CIL41/70.
# [3] = cotreated with antioxidant Trolox
# [4] = cotreated with iron-chelator Lmim
smiles,measurement,setting,value
N/C(Cc1ccc(Cl)cc1)=N\OC(=O)c1cccc2ccccc12 [CIL70],oncogenic RAS selectivity in the BJ engineered cell line series,[1],did not exhibit oncogenic RAS selectivity
same,"AUC, modulator BJ.3MA",BJeLR,0.1014
same,"AUC, modulator BJ.ALLN",BJeLR,−0.07036
same,"AUC, modulator BJ.Boc D",BJeLR,0.002412
same,"AUC, modulator BJ.CHX",BJeLR,0.1304
same,"AUC, modulator BJ.Co2+",BJeLR,−0.0004925
same,"AUC, modulator BJ.DPQ",BJeLR,0.02973
same,"AUC, modulator BJ.Gd3+",BJeLR,0.04884
same,"AUC, modulator BJ.LNAME",BJeLR,−0.006027
same,"AUC, modulator BJ.Lmin/NAD+",BJeLR,0.2633
same,"AUC, modulator BJ.Lmin",BJeLR,0.2062
same,"AUC, modulator BJ.NAD+",BJeLR,0.03108
same,"AUC, modulator BJ.NMMA",BJeLR,−0.008547
same,"AUC, modulator BJ.Nec-1",BJeLR,0.1293
same,"AUC, modulator BJ.Pepstatin",BJeLR,0.07715
same,"AUC, modulator BJ.TLCK",BJeLR,0.06301
same,EC50,BJeLR; DMSO,1.76 µM
same,EC50,BJeLR; cotreated with Lmim_NAD,14.8 µM
same,EC50,BJeLR; [3],7.1 µM
same,EC50,BJeLR; cotreated with antioxidant atoc,18.6 µM
same,EC50,BJeLR; [4],13.1 µM
same,ROS accumulation detected using H2-DCFDA,HT-1080 or BJeLR cells,induced ROS accumulation
same,"effect of ferroptosis inhibitors (α-tocopherol, deferoxamine) on lethality",HT-1080 cells,strongly suppressed by ferroptosis inhibitors
same,AUC HT.ATA,HT-1080,−0.004378
same,AUC HT.ActD,HT-1080,−0.02914
same,AUC HT.BHA,HT-1080,0.1062
same,AUC HT.BHT,HT-1080,−0.03541
same,AUC HT.BocD,HT-1080,−0.03004
same,AUC HT.CHX,HT-1080,−0.02631
same,AUC HT.Co2+,HT-1080,0.01978
same,AUC HT.CspA,HT-1080,−0.0468
same,AUC HT.DPQ,HT-1080,0.02696
same,AUC HT.EGTA,HT-1080,0.01851
same,AUC HT.Gd3+,HT-1080,−0.01357
same,AUC HT.LNAME,HT-1080,0.005993
same,AUC HT.Lmim,HT-1080,0.2198
same,AUC HT.NAD+,HT-1080,0.04321
same,AUC HT.NMMA,HT-1080,−0.005818
same,HT.atoc (AUC),HT-1080,0.2733
same,HT.bCarotene (AUC),HT-1080,−0.001707
same,HT.deferox (AUC),HT-1080,0.2561
same,HT.digoxin (AUC),HT-1080,−0.1366
same,HT.trolox (AUC),HT-1080,0.1205
same,HT.zVAD (AUC),HT-1080,0.002272
same,effect of ferroptosis inhibitors (iron chelators and lipophilic antioxidants) on lethality in modulatory profiling,HT-1080; HT-1080 and BJeLR,suppression by canonical ferroptosis inhibitors
same,EC50,HT-1080; DMSO,4.44 µM
same,EC50,HT-1080; cotreated with MEK inh U0126,10.3 µM
same,EC50,HT-1080; cotreated with antioxidant Atoc,32.2 µM
same,EC50,HT-1080; cotreated with antioxidant BHA,13.3 µM
same,EC50,HT-1080; cotreated with antioxidant BHT,6.5 µM
same,EC50,HT-1080; [3],11.1 µM
same,EC50,HT-1080; cotreated with iron-chelator Deferoxamine,157 µM
same,EC50,HT-1080; [4],47.8 µM
C/C(=N\Nc1ncc(Cl)cc1Cl)c1ccccn1 [CIL64],"AUC, modulator BJ.3MA",BJeLR,0.02465
same,"AUC, modulator BJ.ALLN",BJeLR,0.0142
same,"AUC, modulator BJ.Boc D",BJeLR,0.01108
same,"AUC, modulator BJ.CHX",BJeLR,0.04712
same,"AUC, modulator BJ.Co2+",BJeLR,0.9402
same,"AUC, modulator BJ.DPQ",BJeLR,0.009397
same,"AUC, modulator BJ.Gd3+",BJeLR,0.02721
same,"AUC, modulator BJ.LNAME",BJeLR,0.03249
same,"AUC, modulator BJ.Lmin/NAD+",BJeLR,0.0757
same,"AUC, modulator BJ.Lmin",BJeLR,0.02777
same,"AUC, modulator BJ.NAD+",BJeLR,0.1422
same,"AUC, modulator BJ.NMMA",BJeLR,0.001966
same,"AUC, modulator BJ.Nec-1",BJeLR,0.05533
same,"AUC, modulator BJ.Pepstatin",BJeLR,0.04262
same,"AUC, modulator BJ.TLCK",BJeLR,0.06508
same,binding to cobalt (II) in vitro,[2],bound to cobalt (II) in vitro
same,AUC HT.ATA,HT-1080,0.1979
same,AUC HT.ActD,HT-1080,0.04802
same,AUC HT.BHA,HT-1080,−0.1469
same,AUC HT.BHT,HT-1080,−0.3128
same,AUC HT.BocD,HT-1080,−0.1078
same,AUC HT.CHX,HT-1080,0.06685
same,AUC HT.Co2+,HT-1080,0.4161
same,AUC HT.CspA,HT-1080,0.08661
same,AUC HT.DPQ,HT-1080,−0.135
same,AUC HT.EGTA,HT-1080,0.1842
same,AUC HT.Gd3+,HT-1080,−0.0263
same,AUC HT.LNAME,HT-1080,<0.2159
same,AUC HT.Lmim,HT-1080,−0.2705
same,AUC HT.NAD+,HT-1080,−0.1971
same,AUC HT.NMMA,HT-1080,−0.1742
same,HT.atoc (AUC),HT-1080,−0.06249
same,HT.bCarotene (AUC),HT-1080,0.1654
same,HT.deferox (AUC),HT-1080,0.127
same,HT.digoxin (AUC),HT-1080,0.0348
same,HT.trolox (AUC),HT-1080,−0.08079
same,HT.zVAD (AUC),HT-1080,0.05557
same,effect of cobalt (II) on lethality,"HT-1080; modulatory profiles, CoCl2 supplementation",inhibited by cobalt (II)
